Key:
[1] = test system: KMS11-luc cells; assay: RTCC assay of bivalent AB3 in combination with GSI (8x8 matrix); type: cell-based, human; conditions: for shift of bivalent AB3 response curves with increasing GSI concentration: combination with bivalent AB3
Description: Human T cells were isolated from peripheral blood of healthy human donors. First, peripheral blood mononuclear cells (PBMCs) were fractionated from donor blood using a Ficoll-Paque PLUS (GE Healthcare #17-1440-02) density gradient. T-cells were then isolated from PBMCs by negative selection according to manufacturer's recommended protocol (Miltenyi #130-096-535). The isolated T-cells were further expanded using Human T-Activator CD3/CD28 Dynabeads (Gibco #11132D) for nine days, then debeaded magnetically and stored as viable frozen aliquots in liquid nitrogen. The expanded T cells were used as effector T cells in RTCC assays where they were thawed from frozen aliquots, counted and used immediately at an Effector:Target (E:T) cell ratio of 3:1.
The target MM cell line KMS11 was transduced to constitutively express luciferase, which was used to measure cell viability/survival. KMS11 cells were pelleted and resuspended in fresh media immediately prior to plating to remove any basal level of shed BCMA that can have been present. 2,500 KMS11-luc target cells in 25 μL TCM were added to wells of 384-well plates. 50 nL of serially diluted bivalent AB3 and GSI solutions (LY411575, PR03084014, and BMS0708163) were acoustically dispensed to corresponding wells of the assay plates. 7,500 expanded T cells, as described above, were added to corresponding wells of assay plate in 20 μL TCM. The assay was incubated at 37° C./5% CO2 for 20 hr, followed by measurement of luciferase activity to indicate target cell viability (BrightGlo, Promega #E2650) following manufacturer's protocols. Target cells only (KMS11) without T cells or antibodies serve as control and represent 100% luciferase activity (100% viability). Data were plotted and analyzed using Spotfire, where EC50 values were calculated using sigmoidal, 4-parameter non-linear regression curve fit.
Data from bivalent AB3 and GSI combinations from Example 11 (FIG. 24) were plotted and analyzed using Spotfire, where EC50 values were calculated using sigmoidal, 4-parameter non-linear regression curve fit.

[2] = test system: sBCMA from KMS11 cells; assay: Time course of shed BCMA (sBCMA) by ELISA after GSI treatment; type: cell-based, human; conditions: 2 nM LY411575 or 200 nM PF03084014, 42-hr time course
Procedure: (§1) KMS11 cells were cultured in a 6 well plate at 4×10^6 cells/well in 4 mL of RPMI1640 supplemented with 20% FBS (Gibco #11875-085, Seradigm #1500-500) per well. GSI stock solutions were prepared in DMSO at 10 mM, and added to the cells at final concentrations of 2 nM for LY411575 (Sigma #SML0506) or 200 nM for PF03084014 (Selleckchem #S8018) respectively. Cells were incubated at 37° C./5% CO2, and samples were collected at the following time points: 0, 1, 2, 4, 6, 8, 12, 18, 24, 30 and 42 hr. Collected samples were evaluated for BCMA expression by ELISA and flow cytometry as outline below.
(§2) A pre-treatment study was conducted as above except that KMS11 cells were treated overnight (22 hr) with only LY411575. Cells were washed twice with 3 volumes of growth medium, and re-plated with fresh growth medium without the GSI to the original 4 mL volume. […]
sBCMA levels in supernatants collected and frozen at the various timepoints were determined by ELISA following vendor supplied protocol (R&D Systems #DY193). […] Quantified values as determined by the kit were divided by 5.5 to correct for a molecular mass difference between BCMA-Fc fusion protein used in the kit as a standard curve (32,554.6 Da) and the mass of endogenously shed BCMA extra-cellular domain (5,899.3 Da). […]

[3] = test system: mBCMA on KMS11 cells; assay: Time course of membrane BCMA (mBCMA) by flow cytometry after GSI treatment; type: cell-based, human; conditions: 2 nM LY411575 or 200 nM PF03084014, 42-hr time course
Procedure: as §1, §2
For each collected sample, cells were pelleted by centrifugation. […] Samples from all timepoints were analyzed together by flow cytometry on a BD LSR Fortessa instrument. […]
Where receptor density of BCMA was provided, the anti-BCMA antibody binding capacity (ABC) on KMS11 cells was determined using Quantum Simply Cellular beads (Bangs Laboratories #815) following vendor supplied protocol. The ABC is an estimate of the quantity of receptors per cell.

[4] = test system: mBCMA in KMS11 xenograft; assay: In vivo GSI treatment, membrane BCMA on tumor cells by flow cytometry; set-up: species or system NSG mice; conditions: 150 mg/kg BID for 5 days
Procedure: On Day 0, KMS11-Luc cells were harvested and suspended in Hanks Balanced Salt Solution (HBSS) and 50% matrigel solution at a concentration of 25×10^6 cells/mL. Female NOD.Cg-Prkdc^scidII2rg^tm1Wji/SzJ mice (NSG mice) at ˜6 weeks old (Jackson Laboratories, ME, USA), were implanted sub-cutaneously (SQ) with 200 μL of the cell suspension to deliver 5×10^6 KMS11-Luc cells SQ in the right flank. Seven days following tumor inoculation, each mouse received an adoptive transfer (AdT) of 10×10^6 of peripheral blood mononuclear cells (PBMCs) in 100 μL via IV injection in the lateral tail vein. The PBMCs were previously isolated from a human leukopak, frozen and stored in Cryostor10 media in vapor phase liquid Nitrogen tank until use. Immediately prior to AdT, PBMCs were thawed and suspended at a concentration of 100×10^6 cells/ml in Hanks Balanced Salt Solution (HBSS). […] To obtain single cell suspensions from excised tumors, the tissues were minced with scissors followed by mechanical homogenization in dissociation buffer containing RPMI (Gibco, Life Technologies) with Liberase™ research grade collagenase (Roche) and DNase I recombinase (Roche) using the GentleMAX (Miltenyi). Following a 5 minute incubation at 37° C. in a water or bead bath, the homogenates were quenched with 10% FBS and filtered on a 70-μM sieve (352350, Falcon). The concentration of single cell suspensions were measured on the Vi-Cell (Beckman Coulter), and cells were pelleted by centrifugation for 5 minutes at 1200 rpm. The supernatants were discarded and cell pellets were resuspended in 400 μL of RPMI (Gibco, Life Technologies). Tumor cells were plated in a volume of 100 μL/well at a cell density of 500,000 to 2 million/well. For cell surface staining, live/dead stain was added to plated samples in DPBS and incubated for 30 minutes. […] All samples were analyzed together by flow cytometry at the completion of the study. […]

[5] = test system: sBCMA in KMS11 xenograft model serum; assay: In vivo GSI treatment, shed BCMA in serum by ELISA; set-up: species or system NSG mice; conditions: 150 mg/kg BID for 5 days
Procedure: sBCMA levels in supernatants collected and frozen at the various timepoints were determined by ELISA following vendor supplied protocol (R&D Systems #DY193). Briefly, recombinant human BCMA-Fc protein was included in the kit, and used to generate a standard curve. Collected samples were assayed and sBCMA concentrations extrapolated from the standard curve. […] The results were plotted in Tibco Spotfire or Graphpad Prism against the concentration of GSI. On Day 0, KMS11-Luc cells were harvested and suspended in Hanks Balanced Salt Solution (HBSS) and 50% matrigel solution at a concentration of 25×10^6 cells/mL. Female NOD.Cg-Prkdc^scidII2rg^tm1Wji/SzJ mice (NSG mice) at ˜6 weeks old (Jackson Laboratories, ME, USA), were implanted sub-cutaneously (SQ) with 200 μL of the cell suspension to deliver 5×10^6 KMS11-Luc cells SQ in the right flank. Seven days following tumor inoculation, each mouse received an adoptive transfer (AdT) of 10×10^6 of peripheral blood mononuclear cells (PBMCs) in 100 μL via IV injection in the lateral tail vein. The PBMCs were previously isolated from a human leukopak, frozen and stored in Cryostor10 media in vapor phase liquid Nitrogen tank until use. Immediately prior to AdT, PBMCs were thawed and suspended at a concentration of 100×10^6 cells/ml in Hanks Balanced Salt Solution (HBSS).

[6] = KMS11-luc, expanded T cells E:T 3:1, 20 hr

NC(=O)[C@@H](CCC(F)(F)F)N(Cc1ccc(-c2ncon2)cc1F)S(=O)(=O)c1ccc(Cl)cc1 [BMS-708163, (R)-2-((4-chloro-N-(2-fluoro-4-(1,2,4-oxadiazol-3-yl)benzyl)phenyl)sulfonamido)-5,5,5-trifluoropentanamide]
GSI concentration with modest enhancement of bivalent AB3 potency [1, 6]: 8 nM
GSI concentration with significant enhancement of bivalent AB3 potency [1, 6]: ≥ 31 nM
shift of bivalent AB3 response curves with increasing GSI concentration [1]: response curves shifted to the left

C[C@H](NC(=O)[C@@H](O)c1cc(F)cc(F)c1)C(=O)N[C@@H]1C(=O)N(C)c2ccccc2-c2ccccc21 [LY411575, (S)-2-((S)-2-(3,5-difluorophenyl)-2-hydroxyacetamido)-N—((S)-5-methyl-6-oxo-6,7-dihydro-5H-dibenzo[b,d]azepin-7-yl)propanamide]
sBCMA concentration over time [2]: no increase over time
mBCMA levels over time [3]: increased over time
GSI concentration with no effect on bivalent AB3 activity [1, 6]: ≤ 7.8 pM
GSI concentration with significant enhancement of bivalent AB3 potency [1, 6]: ≥ 0.125 nM
GSI concentration with small effect on bivalent AB3 activity [1, 6]: 31.2 pM
shift of bivalent AB3 response curves with increasing GSI concentration [1]: response curves shifted to the left

CCC[C@H](N[C@H]1CCc2cc(F)cc(F)c2C1)C(=O)Nc1cn(C(C)(C)CNCC(C)(C)C)cn1 [PF03084014, (S)-2-(((S)-6,8-difluoro-1,2,3,4-tetrahydronaphthalen-2-yl)amino)-N-(1-(2-methyl-1-(neopentylamino)propan-2-yl)-1H-imidazol-4-yl)pentanamide]
sBCMA concentration over time [2]: no increase over time
mBCMA levels over time [3]: increased over time
GSI concentration with modest enhancement of bivalent AB3 potency [1, 6]: 3 nM
GSI concentration with significant enhancement of bivalent AB3 potency [1, 6]: ≥ 12 nM
shift of bivalent AB3 response curves with increasing GSI concentration [1]: response curves shifted to the left
increase in mBCMA compared to the vehicle control [4]: 10 fold
mBCMA levels by 24 hours post last dose [4]: dropped back to levels similar to those observed for the vehicle control
time point post last dose through which mBCMA increase was sustained [4]: 7 h
sBCMA levels between 24 and 48 hours post last dose [5]: returning to levels comparable to those observed for the vehicle treated animals
time post last dose for which sBCMA levels were ablated [5]: up to 24 hours

— patent US12275795B2, “Binding molecules against BCMA and uses thereof” (NOVARTIS AG, priority 2018, dated 2025)
